Legend:
[1] = target: Pim 2 (Homo sapiens, UniProt Q9P1W9); test: Pim 2 AlphaScreen assay (high ATP)
Protocol: The activity of Pim 1, Pim 2, & Pim 3 is measured using a homogeneous bead based system quantifying the amount of phosphorylated peptide substrate resulting from kinase-catalyzed phosphoryl transfer to a peptide substrate. Compounds to be tested are dissolved in 100% DMSO and directly distributed to a white 384-well plate at 0.25 μl per well. […] This is followed by the addition of 5 μl/well of Pim 1, Pim 2 or Pim 3 kinase in assay buffer (concentrations described below). Final assay concentrations (described below) are in 2.5% DMSO. The reactions are performed for ˜2 hours, then stopped by the addition of 10 μl of 0.75 μg/ml anti-phospho Ser/Thr antibody (Cell Signaling), 10 μg/ml Protein A AlphaScreen beads (Perkin Elmer), and 10 μg/ml streptavidin coated AlphaScreen beads in stop/detection buffer (50 mM EDTA, 95 mM Tris, pH=7.5, 0.01% Tween-20). The stopped reactions are incubated overnight in the dark. The phosphorylated peptide is detected via an oxygen anion initiated chemiluminescence/fluorescence cascade using the Envision plate reader (Perkin Elmer).

[2] = system: KMS11 (human myeloma cell line); test: Cell Proliferation Assay (CellTiter-Glo, 3 days); type: cell-based; conditions: KMS-11, 72 h, KMS11-luc cells
Outline: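 EC50 from CellTiter-Glo luminescence after 3-day, 37° C compound treatment of KMS11 cells seeded at 2000 per well in IMDM plus 10% FBS.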

[3] = target: Pim 1 (Homo sapiens, UniProt P11309); test: Pim 1 AlphaScreen assay (high ATP)
[4] = target: Pim 3 (Homo sapiens, UniProt Q86V86); test: Pim 3 AlphaScreen assay (high ATP)

Chain of Pim 1 (P11309 whole entry): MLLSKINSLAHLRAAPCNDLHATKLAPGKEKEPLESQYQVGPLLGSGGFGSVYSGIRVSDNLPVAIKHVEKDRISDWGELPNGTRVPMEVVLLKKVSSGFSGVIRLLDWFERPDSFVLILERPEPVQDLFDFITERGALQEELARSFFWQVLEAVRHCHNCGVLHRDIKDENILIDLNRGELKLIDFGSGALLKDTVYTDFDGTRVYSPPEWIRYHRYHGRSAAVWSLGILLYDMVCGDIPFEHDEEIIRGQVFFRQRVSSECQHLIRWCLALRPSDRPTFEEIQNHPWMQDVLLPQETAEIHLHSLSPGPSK
Chain of Pim 2 (Q9P1W9 whole entry): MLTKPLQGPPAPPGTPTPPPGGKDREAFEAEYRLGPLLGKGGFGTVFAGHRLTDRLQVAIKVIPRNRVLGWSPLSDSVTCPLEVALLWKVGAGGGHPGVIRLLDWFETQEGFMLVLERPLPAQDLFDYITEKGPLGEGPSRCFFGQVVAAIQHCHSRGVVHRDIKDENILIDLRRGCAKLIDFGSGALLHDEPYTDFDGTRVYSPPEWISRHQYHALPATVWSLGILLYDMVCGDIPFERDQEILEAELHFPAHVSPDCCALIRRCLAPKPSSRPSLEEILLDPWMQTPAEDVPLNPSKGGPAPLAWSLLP

| SMILES | IC50 [1] [nM] | EC50 [2] [nM] | IC50 [3] [nM] | IC50 [4] [nM] |
| --- | --- | --- | --- | --- |
| C[C@H]1C[C@@H](c2ccncc2NC(=O)c2ccc(F)c(-c3c(F)cc(O[C@H]4CCCOC4)cc3F)n2)C[C@@H](N)[C@@H]1O [Example 80, N-(4-((1R,3R,4R,5S)-3-amino-4-hydroxy-5-methylcyclohexyl)pyridin-3-yl)-6-(2,6-difluoro-4-((S)-tetrahydro-2H-pyran-3-yloxy)phenyl)-5-fluoropicolinamide] | 2.16 | 24 | 0.02 | 0.58 |
| CCOCc1cc(F)c(-c2nc(C(=O)Nc3cnccc3[C@@H]3C[C@H](C)C[C@H](N)C3)ccc2F)c(F)c1 [Example 81, N-(4-((1R,3S,5S)-3-amino-5-methylcyclohexyl)pyridin-3-yl)-6-(4-(ethoxymethyl)-2,6-difluorophenyl)-5-fluoropicolinamide] | 0.42 | 14 | 0.01 | 0.21 |
| C[C@@H]1C[C@H](N)C[C@H](c2ccncc2NC(=O)c2ccc(F)c(-c3c(F)cc(C4CCOCC4)cc3F)n2)C1 [Example 82, N-(4-((1R,3S,5S)-3-amino-5-methylcyclohexyl)pyridin-3-yl)-6-(2,6-difluoro-4-(tetrahydro-2H-pyran-4-yl)phenyl)-5-fluoropicolinamide] | 1.05 | 30 | 0.01 | 0.52 |
| CCOCc1cc(F)c(-c2nc(C(=O)Nc3cnccc3[C@H]3C[C@@H](N)[C@H](O)[C@@H](C)C3)ccc2F)c(F)c1 [Example 83, N-(4-((1R,3R,4R,5S)-3-amino-4-hydroxy-5-methylcyclohexyl)pyridin-3-yl)-6-(4-(ethoxymethyl)-2,6-difluorophenyl)-5-fluoropicolinamide] | 2.43 | 166 | 0.04 | 1.33 |
| C[C@@H]1C[C@H](N)C[C@H](c2ccncc2NC(=O)c2ccc(F)c(-c3c(F)cc(CC(C)(C)O)cc3F)n2)C1 [Example 84, N-(4-((1R,3S,5S)-3-amino-5-methylcyclohexyl)pyridin-3-yl)-6-(2,6-difluoro-4-(2-hydroxy-2-methylpropyl)phenyl)-5-fluoropicolinamide] | 1.48 | 29 | 0.02 | 0.52 |
| C[C@H]1C[C@@H](c2ccncc2NC(=O)c2ccc(F)c(-c3c(F)cc(CC(C)(C)O)cc3F)n2)C[C@@H](N)[C@@H]1O [Example 85, N-(4-((1R,3R,4R,5S)-3-amino-4-hydroxy-5-methylcyclohexyl)pyridin-3-yl)-6-(2,6-difluoro-4-(2-hydroxy-2-methylpropyl)phenyl)-5-fluoropicolinamide] | 2.2 | 49 | 0.05 | 1.34 |
| C[C@@H]1C[C@H](N)C[C@H](c2ccncc2NC(=O)c2nc(-c3c(F)cc(OC4CCOCC4)cc3F)c(F)cc2N)C1 [Example 86, 3-amino-N-(4-((1R,3S,5S)-3-amino-5-methylcyclohexyl)pyridin-3-yl)-6-(2,6-difluoro-4-(tetrahydro-2H-pyran-4-yloxy)phenyl)-5-fluoropicolinamide] | 0.91 | 17 | 0.01 | 0.22 |
| COC1(c2cc(F)c(-c3nc(C(=O)Nc4cnccc4N4C[C@@H](N)[C@H](O)[C@@H](C)C4)ccc3F)c(F)c2)COC1 [Example 88, N-(4-((3R,4R,5S)-3-amino-4-hydroxy-5-methylpiperidin-1-yl)pyridin-3-yl)-6-(2,6-difluoro-4-(3-methoxyoxetan-3-yl)phenyl)-5-fluoropicolinamide] | 1.18 | 17 | 0.02 | 0.69 |
| C[C@H]1CN(c2ccncc2NC(=O)c2ccc(F)c(-c3c(F)cc(C4(O)COC4)cc3F)n2)C[C@@H](N)[C@@H]1O [Example 89, N-(4-((3R,4R,5S)-3-amino-4-hydroxy-5-methylpiperidin-1-yl)pyridin-3-yl)-6-(2,6-difluoro-4-(3-hydroxyoxetan-3-yl)phenyl)-5-fluoropicolinamide] | 0.67 | 21 | 0.01 | 0.26 |
| COC1(c2cc(F)c(-c3nc(C(=O)Nc4cnccc4[C@@H]4C[C@H](C)C[C@H](N)C4)c(N)cc3F)c(F)c2)COC1 [Example 90, 3-amino-N-(4-((1R,3S,5S)-3-amino-5-methylcyclohexyl)pyridin-3-yl)-6-(2,6-difluoro-4-(3-methoxyoxetan-3-yl)phenyl)-5-fluoropicolinamide] | 0.72 | 19 | 0.01 | 0.71 |
| COC1(c2cc(F)c(-c3nc(C(=O)Nc4cnccc4[C@H]4C[C@@H](N)[C@H](O)[C@@H](C)C4)c(N)cc3F)c(F)c2)COC1 [Example 91, 3-amino-N-(4-((1R,3R,4R,5S)-3-amino-4-hydroxy-5-methylcyclohexyl)pyridin-3-yl)-6-(2,6-difluoro-4-(3-methoxyoxetan-3-yl)phenyl)-5-fluoropicolinamide] | 1.44 | 25 | 0.02 | 0.93 |
| C[C@H]1CN(c2ccncc2NC(=O)c2ccc(F)c(-c3c(F)cc(OCC4CC4)cc3F)n2)C[C@@H](N)[C@@H]1O [Example 92, N-(4-((3R,4R,5S)-3-amino-4-hydroxy-5-methylpiperidin-1-yl)pyridin-3-yl)-6-(4-(cyclopropylmethoxy)-2,6-difluorophenyl)-5-fluoropicolinamide] | 0.51 | 34 | 0.01 | 0.09 |
| CC(C)Oc1cc(F)c(-c2nc(C(=O)Nc3cnccc3N3C[C@@H](N)[C@H](O)[C@@H](C)C3)ccc2F)c(F)c1 [Example 93, N-(4-((3R,4R,5S)-3-amino-4-hydroxy-5-methylpiperidin-1-yl)pyridin-3-yl)-6-(2,6-difluoro-4-isopropoxyphenyl)-5-fluoropicolinamide] | 0.78 | 20 | 0.01 | 0.1 |
| C[C@H]1C[C@@H](c2ccncc2NC(=O)c2ccc(F)c(-c3c(F)cc(C4CCOCC4)cc3F)n2)C[C@@H](N)[C@@H]1O [Example 94, N-(4-((1R,3R,4R,5S)-3-amino-4-hydroxy-5-methylcyclohexyl)pyridin-3-yl)-6-(2,6-difluoro-4-(tetrahydro-2H-pyran-4-yl)phenyl)-5-fluoropicolinamide] | 1.29 | 24 | 0.01 | 0.39 |
| CC(C)Oc1cc(F)c(-c2nc(C(=O)Nc3cnccc3[C@@H]3C[C@H](C)C[C@H](N)C3)c(N)cc2F)c(F)c1 [Example 96, 3-amino-N-(4-((1R,3S,5S)-3-amino-5-methylcyclohexyl)pyridin-3-yl)-6-(2,6-difluoro-4-isopropoxyphenyl)-5-fluoropicolinamide] | 1.16 | 76 | 0.01 | 0.24 |
| CC(C)Oc1cc(F)c(-c2nc(C(=O)Nc3cnccc3[C@H]3C[C@@H](N)[C@H](O)[C@@H](C)C3)c(N)cc2F)c(F)c1 [Example 97] | 1.55 | 69 | 0.02 | 0.37 |
| C[C@H]1C[C@@H](c2ccncc2NC(=O)c2nc(-c3c(F)cc(C4COC4)cc3F)c(F)cc2N)C[C@@H](N)[C@@H]1O [Example 98, 3-amino-N-(4-((1R,3R,4R,5S)-3-amino-4-hydroxy-5-methylcyclohexyl)pyridin-3-yl)-6-(2,6-difluoro-4-(oxetan-3-yl)phenyl)-5-fluoropicolinamide] | 1.38 | 40 | 0.03 | 0.53 |
| C[C@H]1CN(c2ccncc2NC(=O)c2ccc(F)c(-c3c(F)cc(C4CCOCC4)cc3F)n2)C[C@@H](N)[C@@H]1O [Example 99, N-(4-((3R,4R,5S)-3-amino-4-hydroxy-5-methylpiperidin-1-yl)pyridin-3-yl)-6-(2,6-difluoro-4-(tetrahydro-2H-pyran-4-yl)phenyl)-5-fluoropicolinamide] | 0.57 | 10 | 0.01 | 0.12 |
| C[C@@H]1C[C@H](N)C[C@H](c2ccncc2NC(=O)c2nc(-c3c(F)cc(C(C)(C)O)cc3F)c(F)cc2N)C1 [Example 100, 3-amino-N-(4-((1R,3S,5S)-3-amino-5-methylcyclohexyl)pyridin-3-yl)-6-(2,6-difluoro-4-(2-hydroxypropan-2-yl)phenyl)-5-fluoropicolinamide] | 0.53 | 12 | 0.01 | 0.13 |
| C[C@H]1C[C@@H](c2ccncc2NC(=O)c2nc(-c3c(F)cc(C(C)(C)O)cc3F)c(F)cc2N)C[C@@H](N)[C@@H]1O [Example 101, 3-amino-N-(4-((1R,3R,4R,5S)-3-amino-4-hydroxy-5-methylcyclohexyl)pyridin-3-yl)-6-(2,6-difluoro-4-(2-hydroxypropan-2-yl)phenyl)-5-fluoropicolinamide] | 1.3 | 30 | 0.02 | 0.36 |
| C[C@H]1CN(c2ccncc2NC(=O)c2nc(-c3c(F)cc(C(C)(C)O)cc3F)c(F)cc2N)C[C@@H](N)[C@@H]1O [Example 102, 3-amino-N-(4-((3R,4R,5S)-3-amino-4-hydroxy-5-methylpiperidin-1-yl)pyridin-3-yl)-6-(2,6-difluoro-4-(2-hydroxypropan-2-yl)phenyl)-5-fluoropicolinamide] | 0.75 | 15 | 0.01 | 0.13 |
| C[C@H]1CN(c2ccncc2NC(=O)c2ccc(F)c(-c3c(F)cc(C4(O)CC4)cc3F)n2)C[C@@H](N)[C@@H]1O [Example 103, N-(4-((3R,4R,5S)-3-amino-4-hydroxy-5-methylpiperidin-1-yl)pyridin-3-yl)-6-(2,6-difluoro-4-(1-hydroxycyclopropyl)phenyl)-5-fluoropicolinamide] | 0.68 | 21 | 0.02 | 0.37 |

— patent publication US20120225062A1 (priority 2011, published 2012)
